Reference: PubChem BioAssay (NCI)
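Briefly, cells in 96-well plates were exposed to five compound concentrations for 48 h, and endpoints were estimated by linear interpolation. Definition used: TGI = concentration required for complete inhibition of growth.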

What was measured:
Assay in all cases: NCI anticancer screen, dose series, 48 h
MCF7 breast = test system: MCF7 breast
BT-549 breast = test system: BT-549 breast
UACC-62 melanoma = test system: UACC-62 melanoma
PC-3 prostate = test system: PC-3 prostate
SN12C renal = test system: SN12C renal
UACC-257 melanoma = test system: UACC-257 melanoma
TK-10 renal = test system: TK-10 renal
OVCAR-5 ovarian = test system: OVCAR-5 ovarian
SF-268 CNS = test system: SF-268 CNS
HCT-15 colon = test system: HCT-15 colon
SF-539 CNS = test system: SF-539 CNS
SK-MEL-2 melanoma = test system: SK-MEL-2 melanoma
EKVX NSCLC = test system: EKVX NSCLC
MDA-MB-231 breast = test system: MDA-MB-231 breast
786-0 renal = test system: 786-0 renal
ACHN renal = test system: ACHN renal
SW-620 colon = test system: SW-620 colon
IGROV1 ovarian = test system: IGROV1 ovarian
HOP-92 NSCLC = test system: HOP-92 NSCLC
HCT-116 colon = test system: HCT-116 colon
NCI-H23 lung = test system: NCI-H23 lung
T-47D breast = test system: T-47D breast
UO-31 renal = test system: UO-31 renal
SNB-19 CNS = test system: SNB-19 CNS
A549 NSCLC = test system: A549 NSCLC
OVCAR-3 ovarian = test system: OVCAR-3 ovarian
MALME-3M melanoma = test system: MALME-3M melanoma
COLO 205 colon = test system: COLO 205 colon
RXF 393 renal = test system: RXF 393 renal
RPMI-8226 leukemia = test system: RPMI-8226 leukemia
LOX IMVI melanoma = test system: LOX IMVI melanoma
K-562 leukemia = test system: K-562 leukemia
SK-OV-3 ovarian = test system: SK-OV-3 ovarian
HCC-2998 colon = test system: HCC-2998 colon
U251 CNS = test system: U251 CNS
DU-145 prostate = test system: DU-145 prostate
SK-MEL-28 melanoma = test system: SK-MEL-28 melanoma
CCRF-CEM leukemia = test system: CCRF-CEM leukemia
SNB-75 CNS = test system: SNB-75 CNS
SK-MEL-5 melanoma = test system: SK-MEL-5 melanoma
CAKI-1 renal = test system: CAKI-1 renal
A498 renal = test system: A498 renal
NCI/ADR-RES ovarian = test system: NCI/ADR-RES ovarian
MOLT-4 leukemia = test system: MOLT-4 leukemia
HOP-62 NSCLC = test system: HOP-62 NSCLC
M14 melanoma = test system: M14 melanoma
OVCAR-4 ovarian = test system: OVCAR-4 ovarian
MDA-MB-435 = test system: MDA-MB-435
MDA-N = test system: MDA-N
NCI-H460 lung = test system: NCI-H460 lung
HT29 colon = test system: HT29 colon
SF-295 CNS = test system: SF-295 CNS
OVCAR-8 ovarian = test system: OVCAR-8 ovarian
NCI-H226 lung = test system: NCI-H226 lung
HL-60(TB) leukemia = test system: HL-60(TB) leukemia
HS 578T breast = test system: HS 578T breast
KM12 colon = test system: KM12 colon

SMILES: N#Cc1c(SCc2ccccc2)nc(-c2ccccc2)[nH]c1=S
- TGI (MCF7 breast): 71 µM
- TGI (BT-549 breast): 54.2 µM
- TGI (UACC-62 melanoma): 56.6 µM
- TGI (PC-3 prostate): 35.2 µM
- TGI (SN12C renal): 82 µM
- TGI (UACC-257 melanoma): > 100 µM
- TGI (TK-10 renal): > 100 µM
- TGI (OVCAR-5 ovarian): 53.6 µM
- TGI (SF-268 CNS): 57 µM
- TGI (HCT-15 colon): 50.4 µM
- TGI (SF-539 CNS): 56.6 µM
- TGI (SK-MEL-2 melanoma): 32.4 µM
- TGI (EKVX NSCLC): 93.6 µM
- TGI (MDA-MB-231 breast): > 100 µM
- TGI (786-0 renal): 48 µM
- TGI (ACHN renal): 63.3 µM
- TGI (SW-620 colon): 60 µM
- TGI (IGROV1 ovarian): 79.4 µM
- TGI (HOP-92 NSCLC): 85.7 µM
- TGI (HCT-116 colon): 51.8 µM
- TGI (NCI-H23 lung): 47.7 µM
- TGI (T-47D breast): 80.2 µM
- TGI (UO-31 renal): 35 µM
- TGI (SNB-19 CNS): > 100 µM
- TGI (A549 NSCLC): > 100 µM
- TGI (OVCAR-3 ovarian): 36.3 µM
- TGI (MALME-3M melanoma): > 100 µM
- TGI (COLO 205 colon): 48.8 µM
- TGI (RXF 393 renal): 44.9 µM
- TGI (RPMI-8226 leukemia): 89.9 µM
- TGI (LOX IMVI melanoma): 63.9 µM
- TGI (K-562 leukemia): > 100 µM
- TGI (SK-OV-3 ovarian): 60.1 µM
- TGI (HCC-2998 colon): 39.8 µM
- TGI (U251 CNS): 45.1 µM
- TGI (DU-145 prostate): > 100 µM
- TGI (SK-MEL-28 melanoma): 55 µM
- TGI (CCRF-CEM leukemia): > 100 µM
- TGI (SNB-75 CNS): 47.1 µM
- TGI (SK-MEL-5 melanoma): 54.8 µM
- TGI (CAKI-1 renal): 79 µM
- TGI (A498 renal): 63.8 µM
- TGI (NCI/ADR-RES ovarian): 67.4 µM
- TGI (MOLT-4 leukemia): 85.2 µM
- TGI (HOP-62 NSCLC): 40.7 µM
- TGI (M14 melanoma): 89.8 µM
- TGI (OVCAR-4 ovarian): > 100 µM
- TGI (MDA-MB-435): 61.3 µM
- TGI (MDA-N): 67.1 µM
- TGI (NCI-H460 lung): 51.4 µM
- TGI (HT29 colon): 60.1 µM
- TGI (SF-295 CNS): 55.1 µM
- TGI (OVCAR-8 ovarian): 76.7 µM
- TGI (NCI-H226 lung): 70.3 µM
- TGI (HL-60(TB) leukemia): > 100 µM
- TGI (HS 578T breast): 92 µM
- TGI (KM12 colon): 34.5 µM
